# Several values for one entry are separate records, joined by “and”; a condition that tells them apart may be missing. Equal entries are not always repeated. Toxic doses and inconclusive results are not listed.
# Tested on: L1210 leukemia ip in BDF1 mice, survival T/C
# Test: NCI In Vivo Anticancer Drug Screen. Data for tumor model L1210 Leukemia (intraperitoneal) in B6D2F1 (BDF1) mice
# Conditions: endpoint: mean survival time, higher = longer survival
# Procedure, shortened: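 In this screen, tumor-bearing mice given compound are compared to those given vehicle, and their survival values are reported as a treated-to-control quotient.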
# [1] = dose: 100.0 mg/kg/injection, schedule: Q01DX001 (ip), vehicle: Klucel (hydroxypropylcellulose) (HPC)
# [2] = dose: 200.0 mg/kg/injection, schedule: Q01DX001 (ip), vehicle: Klucel (hydroxypropylcellulose) (HPC)
# [3] = dose: 400.0 mg/kg/injection, schedule: Q01DX001 (ip), vehicle: Klucel (hydroxypropylcellulose) (HPC)
# [4] = dose: 100.0 mg/kg/injection, schedule: Q01DX001 (ip), vehicle: carboxymethylcellulose (CMC)
# [5] = dose: 200.0 mg/kg/injection, schedule: Q01DX001 (ip), vehicle: carboxymethylcellulose (CMC)
# [6] = dose: 400.0 mg/kg/injection, schedule: Q01DX001 (ip), vehicle: carboxymethylcellulose (CMC)
# [7] = dose: 100.0 mg/kg/injection, schedule: Q04DX003 (ip), vehicle: saline
# [8] = dose: 200.0 mg/kg/injection, schedule: Q04DX003 (ip), vehicle: saline
# [9] = dose: 400.0 mg/kg/injection, schedule: Q04DX003 (ip), vehicle: saline
# [10] = dose: 50.0 mg/kg/injection, schedule: Q01DX009 (ip), vehicle: saline with Tween-80
# [11] = dose: 100.0 mg/kg/injection, schedule: Q01DX009 (ip), vehicle: saline with Tween-80
# [12] = dose: 200.0 mg/kg/injection, schedule: Q01DX009 (ip), vehicle: saline with Tween-80
# [13] = dose: 100.0 mg/kg/injection, schedule: Q01DX009 (ip), vehicle: Klucel (hydroxypropylcellulose) (HPC)
# [14] = dose: 200.0 mg/kg/injection, schedule: Q01DX009 (ip), vehicle: Klucel (hydroxypropylcellulose) (HPC)
# [15] = dose: 400.0 mg/kg/injection, schedule: Q01DX009 (ip), vehicle: Klucel (hydroxypropylcellulose) (HPC)
# [16] = dose: 100.0 mg/kg/injection, schedule: Q01DX009 (ip), vehicle: saline
# [17] = dose: 200.0 mg/kg/injection, schedule: Q01DX009 (ip), vehicle: saline
# [18] = dose: 400.0 mg/kg/injection, schedule: Q01DX009 (ip), vehicle: saline
# [19] = dose: 100.0 mg/kg/injection, schedule: Q01DX001 (ip), vehicle: saline
# [20] = dose: 200.0 mg/kg/injection, schedule: Q01DX001 (ip), vehicle: saline
# [21] = dose: 400.0 mg/kg/injection, schedule: Q01DX001 (ip), vehicle: saline
# [22] = dose: 400.0 mg/kg/injection, schedule: Q04DX003 (ip), vehicle: Klucel (hydroxypropylcellulose) (HPC)
# [23] = dose: 400.0 mg/kg/injection, schedule: Q01DX009 (ip), vehicle: saline with Tween-80
# [24] = dose: 100.0 mg/kg/injection, schedule: Q04DX002 (ip), vehicle: saline
# [25] = dose: 200.0 mg/kg/injection, schedule: Q04DX002 (ip), vehicle: saline
# [26] = dose: 400.0 mg/kg/injection, schedule: Q04DX002 (ip), vehicle: saline
compound,measurement,setting,value
Nc1ccc(C2=NCCO2)cc1,T/C,[1],92 % of control
same,T/C,[2],103 % of control
same,T/C,[3],96 % of control
O=C1CCC=Cc2c(O)ccc(O)c21,T/C,[4],91 % of control
same,T/C,[5],93 % of control
same,T/C,[6],96 % of control
CCOC(=O)c1ccc([N+](=O)[O-])s1,T/C,[7],100 % of control
same,T/C,[8],97 % of control
same,T/C,[9],111 % of control
N#CSCCC(c1ccccc1)(c1ccccc1)c1ccccc1,T/C,[10],90 % of control
same,T/C,[11],90 % of control
same,T/C,[12],90 % of control
CN(CCC#N)c1ccc(/C=C(\C#N)c2ccc(Cl)cc2)cc1,T/C,[13],102 % of control
same,T/C,[14],103 % of control
same,T/C,[15],105 % of control
CC(=O)Nc1ccc(NC(=O)C2C3C=CC(C3)C2C(=O)O)cc1 (stereo not given),T/C,[10],101 % of control
same,T/C,[11],107 % of control
same,T/C,[12],93 % of control
CC(=O)OCC1OC(N2C(=O)/C(=C/c3ccc(Cl)cc3)SC2=S)C(OC(C)=O)C(OC(C)=O)C1OC(C)=O (stereo not given),T/C,"dose: 25.0 mg/kg/injection, schedule: Q01DX005 (ip), vehicle: other",97 % of control
COc1ccc(/C=N/NC(=O)c2ccccc2OC)cc1,T/C,[16],108 % of control
same,T/C,[7],108 % of control
same,T/C,"dose: 130.0 mg/kg/injection, schedule: Q01DX009 (ip), vehicle: saline",104 % of control
same,T/C,[17],92 % of control
same,T/C,[8],102 % of control
same,T/C,"dose: 300.0 mg/kg/injection, schedule: Q01DX009 (ip), vehicle: saline",92 % of control
same,T/C,[18],114 % of control
same,T/C,[9],102 % of control
Cc1ccc(OCC(=O)O)c(Cl)c1,T/C,[13],104 % of control
same,T/C,[14],94 % of control
NCCCNc1ccc([N+](=O)[O-])cc1,T/C,"dose: 37.5 mg/kg/injection, schedule: Q04DX003 (ip), vehicle: saline",101 % of control
same,T/C,"dose: 75.0 mg/kg/injection, schedule: Q04DX003 (ip), vehicle: saline",102 % of control
same,T/C,"dose: 150.0 mg/kg/injection, schedule: Q04DX003 (ip), vehicle: saline",101 % of control
CC(=O)ONC(NOC(C)=O)N[N+](=O)[O-],T/C,[19],103 % of control
same,T/C,[20],98 % of control
same,T/C,[21],102 % of control
Nc1nc(SCc2ccccn2)c2[nH]cnc2n1,T/C,"dose: 45.0 mg/kg/injection, schedule: Q04DX003 (ip), vehicle: Klucel (hydroxypropylcellulose) (HPC)",121 % of control
same,T/C,"dose: 65.0 mg/kg/injection, schedule: Q04DX003 (ip), vehicle: Klucel (hydroxypropylcellulose) (HPC)",124 % of control
same,T/C,[22],155 % of control
COc1cc(C(N)=O)cc(OC)c1O,T/C,[16],92 % of control
same,T/C,[7],97 % of control
same,T/C,[17],103 % of control
same,T/C,[8],108 % of control
same,T/C,[18],113 % of control
same,T/C,[9],100 % of control
O=C(O)c1ccc(F)c(F)c1F,T/C,"dose: 100.0 mg/kg/injection, schedule: Q04DX002 (ip), vehicle: other",121 % of control
same,T/C,"dose: 200.0 mg/kg/injection, schedule: Q04DX002 (ip), vehicle: other",115 % of control
COc1ccc(S(=O)(=O)F)cc1NC(=O)NCCOc1ccc(-n2cnc3c(=O)[nH]c(N)nc32)cc1,T/C,[1],102 % of control
same,T/C,[2],97 % of control
same,T/C,[3],96 % of control
N#C/C=C/c1cccc([N+](=O)[O-])c1,T/C,[11],102 % of control
same,T/C,[12],93 % of control
same,T/C,[23],98 % of control
CC/C(=C(\CC)c1ccc(OCC(=O)N(CCCl)CCCl)cc1)c1ccc(OCC(=O)N(CCCl)CCCl)cc1,T/C,"dose: 5.0 mg/kg/injection, schedule: Q04DX002 (ip), vehicle: saline",105 % of control
same,T/C,"dose: 10.0 mg/kg/injection, schedule: Q04DX002 (ip), vehicle: saline",97 % of control
same,T/C,"dose: 20.0 mg/kg/injection, schedule: Q04DX002 (ip), vehicle: saline",94 % of control
C[C@@]1(C(=O)O)CC2C=CC1C2 (stereo not given in full),T/C,"dose: 100.0 mg/kg/injection, schedule: Q04DX002 (ip), vehicle: Klucel (hydroxypropylcellulose) (HPC)",96 % of control
same,T/C,"dose: 200.0 mg/kg/injection, schedule: Q04DX002 (ip), vehicle: Klucel (hydroxypropylcellulose) (HPC)",96 % of control
same,T/C,"dose: 400.0 mg/kg/injection, schedule: Q04DX002 (ip), vehicle: Klucel (hydroxypropylcellulose) (HPC)",93 % of control
CCOC(=O)CC(CC(=O)OCC)C(=O)OCC,T/C,[24],104 % of control
same,T/C,[25],96 % of control
same,T/C,[26],107 % of control
CCCC(=O)Oc1ccc2c(C)cc(=O)oc2c1,T/C,[11],102 % of control
same,T/C,"dose: 100.0 mg/kg/injection, schedule: Q04DX003 (ip), vehicle: saline with Tween-80",94 % of control
same,T/C,[12],104 % of control
same,T/C,"dose: 200.0 mg/kg/injection, schedule: Q04DX003 (ip), vehicle: saline with Tween-80",100 % of control
same,T/C,[23],106 % of control
same,T/C,"dose: 400.0 mg/kg/injection, schedule: Q04DX003 (ip), vehicle: saline with Tween-80",100 % of control
O=c1[nH]c2c(Cl)cccc2c2ccccc12,T/C,[4],100 % of control
same,T/C,[5],107 % of control
same,T/C,[6],102 % of control
[N-]=[N+]=Nc1ccc(Cl)cc1C(=O)c1ccccc1,T/C,"dose: 25.0 mg/kg/injection, schedule: Q01DX009 (ip), vehicle: saline",120 % of control
same,T/C,"dose: 25.0 mg/kg/injection, schedule: Q04DX003 (ip), vehicle: saline",98 % of control
same,T/C,"dose: 50.0 mg/kg/injection, schedule: Q01DX009 (ip), vehicle: saline",109 % of control
same,T/C,"dose: 50.0 mg/kg/injection, schedule: Q04DX003 (ip), vehicle: saline",104 % of control
same,T/C,[16],111 % of control
same,T/C,[7],102 % of control and 113 % of control
CC/C(C)=N\NC(N)=S,T/C,"dose: 6.25 mg/kg/injection, schedule: Q01DX009 (ip), vehicle: Klucel (hydroxypropylcellulose) (HPC)",91 % of control
same,T/C,"dose: 12.5 mg/kg/injection, schedule: Q01DX009 (ip), vehicle: Klucel (hydroxypropylcellulose) (HPC)",92 % of control
same,T/C,"dose: 12.5 mg/kg/injection, schedule: Q04DX002 (ip), vehicle: Klucel (hydroxypropylcellulose) (HPC)",92 % of control
same,T/C,"dose: 25.0 mg/kg/injection, schedule: Q04DX002 (ip), vehicle: Klucel (hydroxypropylcellulose) (HPC)",98 % of control
OCC1OC(c2[nH]nc3c(Cl)ncnc23)C(O)C1O (stereo not given),T/C,"dose: 100.0 mg/kg/injection, schedule: Q01DX005 (ip), vehicle: saline",108 % of control
same,T/C,"dose: 200.0 mg/kg/injection, schedule: Q01DX005 (ip), vehicle: saline",120 % of control
CCN(CC)CCCC(C)Nc1cc(C)nc2ccc(N(C)C)cc12 (stereo not given),T/C,"dose: 12.5 mg/kg/injection, schedule: Q01DX009 (ip), vehicle: saline with Tween-80",104 % of control
same,T/C,"dose: 25.0 mg/kg/injection, schedule: Q01DX009 (ip), vehicle: saline with Tween-80",111 % of control
same,T/C,[10],106 % of control
N#CCCNC=O,T/C,[24],109 % of control
same,T/C,[25],98 % of control
same,T/C,[26],109 % of control
CCOC(=O)CNC(c1ccccc1)(c1ccccc1)c1ccccc1,T/C,[13],106 % of control
same,T/C,"dose: 100.0 mg/kg/injection, schedule: Q04DX003 (ip), vehicle: Klucel (hydroxypropylcellulose) (HPC)",91 % of control
same,T/C,[14],90 % of control
same,T/C,"dose: 200.0 mg/kg/injection, schedule: Q04DX003 (ip), vehicle: Klucel (hydroxypropylcellulose) (HPC)",91 % of control
same,T/C,[15],90 % of control
same,T/C,[22],98 % of control
ClCCCSCCCCl,T/C,"dose: 50.0 mg/kg/injection, schedule: Q01DX001 (ip), vehicle: saline",103 % of control
same,T/C,[19],112 % of control
same,T/C,[20],124 % of control
same,T/C,[21],95 % of control
Cc1cc2c(cn1)C(=O)C=CC2=O,T/C,"dose: 5.0 mg/kg/injection, schedule: Q01DX001 (ip), vehicle: carboxymethylcellulose (CMC)",94 % of control
same,T/C,"dose: 10.0 mg/kg/injection, schedule: Q01DX001 (ip), vehicle: carboxymethylcellulose (CMC)",96 % of control
